IC50, MTD and TGI % data for one compound are collected here from patent US20250127759A1, “METHODS AND DOSING REGIMENS COMPRISING A CDK2 INHIBITOR FOR THE TREATMENT OF CANCER” (PFIZER INC., priority 2021, published 2025).

One data set deals with MCF7 cells. As to the kind of experiment: Proliferation inhibition, MCF7. To be noted: Homo sapiens, 168 h, treated for 7 days. It is filed as cell-based. The method, then: (§1) Anti-proliferative activity was measured in cells treated for 7 days with PF-07104091 in OVCAR3 cells, Rb mutant NCI-H526 SCLC cells, and both HR-positive HER2-negative MCF7 and the subline MCF7-PalboR (resistant to palbociclib).

Another data set relates to NCI-H526 SCLC cells. The data set is described as follows: Proliferation inhibition, NCI-H526. It is filed as cell-based. The following applies: Homo sapiens, 168 h, treated for 7 days. As to the method:
as §1

Data set [1] in a line: In vivo efficacy, OVCAR3 ovarian cancer tumor model. To be noted: female, mouse, NSG mice, po, BID, read-out: maximum tolerated dose level. The method, then: (§2) Female NSG (Jackson Lab) or Nu/nu (CRL) were subcutaneously implanted with tumor cells or fragments (8 mm^3 to 27 mm^3) into the dorsal region. For the MCF7 study, mice were supplemented with estrogen (sc implanted, 17β-estradiol, 0.36 mg, 90-day release pellet, Innovative Research of America, cat no. NE-121).
To establish the OVCAR3 model, tumor cells (5×10^6 cells/mouse with 50% Cultrex® Basement Membrane Matrix) were subcutaneously implanted in female NSG mice. […] PF-07104091 was administered (p.o.) BID (7 hr apart). All mice received treatment continuously for 21 days. TGI was assessed on Day 21 post first dose (or Day 66 post tumor cell implant).

A short description of data set [2]: In vivo efficacy, MCF7 breast cancer model. To be noted: female, mouse, NSG mice, po, BID, read-out: maximum tolerated dose level. As to the method: as §2
The MCF7 model was established by implanting donor tumor fragments into recipient mice. To establish the MCF7 donor mice, tumor cells (5×10^6 cells/mouse with 50% Cultrex® Basement Membrane Matrix) were subcutaneously implanted in female NSG mice. […] 150 mg/kg, po, BID is the maximum tolerated dose level in this model. PF 07104091 was administered (p.o.) BID (7 hr apart). TGI was assessed on Day 21 post first dose (or Day 42 post tumor fragment implant).

A further data set relates to HCC1428. The data set is described as follows: In vivo efficacy, HCC1428 breast cancer model. On the set-up: species or system mice. The following applies: Day 42, 150 mg/kg BID PO, 150 mg/kg. The method, then:
The HCC1428 model was established by implanting passage 4 tumor fragments into recipient mice. To establish the HCC1428 donor mice, tumor cells (5×10^6 cell/mouse with 50% Cultrex® Basement Membrane Matrix) were subcutaneously implanted in female NSG mice. […] All mice received treatment continuously until Day 42. TGI was assessed on Day 42 post first dose.

As usually defined, the IC50 is the concentration at which inhibition is half-maximal. `COCc1cc(C(=O)Nc2cc([C@H]3CC[C@@H](OC(=O)NC(C)C)C3)[nH]n2)n(C)n1` [PF-07104091, (1R,3S)-3-[3-({[3-(methoxymethyl)-1-methyl-1H-pyrazol-5-yl]carbonyl}amino)-1H-pyrazol-5-yl]cyclopentyl propan-2-ylcarbamate]: the IC50 is 252 nM with MCF7 cells and 136 nM in the data set with NCI-H526 SCLC cells. For the same compound, the MTD at 21 days in data set [1] is 175 mg/kg; in data set [2], 150 mg/kg. In addition, the TGI % in the data set with HCC1428 is 95%.
